Test [1] concerns VM-NSCs. The test can be described thus: DA neuron differentiation (TH+ cell yield) of in vitro expanded VM-NSCs. In kind it is cell-based, rat. The procedure: (§1) NSCs were cultured from rat embryo VMs (Sprague Dawley) at embryonic day 12 (E12) on 6-cm dishes or 24-well plates pre-coated with 15 μg/ml poly-L-ornithine (PLO; Sigma)/1 ug/ml fibronectin (FN; Sigma, St. Louis, Mo.) in serum-free N2 medium. NSCs were induced to proliferate by the mitogenic action of basic fibroblast growth factor (bFGF, 20 ng/ml, R&D Systems, Minneapolis, Minn.). The proliferating VM-NSCs cultured in 6-cm dishes were passaged at every 4th day in mitogen-supplemented medium with or without Vitamin C (VC; Sigma; 200 μM), glutathione reduced form (GSH; Sigma; 200 μM), vitamin E (alpha-tocopherol; Sigma; 200 μM), or N-acetylcysteine (NAc; Sigma; 100 μM). The expanded NSCs at the last day of each passage were induced to differentiate by withdrawing the mitogen and antioxidants from the media (for 2-16 days). Human NSC cultures were derived by in vitro differentiation of hESCs (H9) and cultured as described in the following reference. [Rhee, Y. H., Ko, J. Y., Chang, M. Y., Yi, S. H., Kim, D., Kim, C. H., Shim, J. W., Jo, A. Y., Kim, B. W., Lee, H., et al. (2011). Protein-based human iPS cells efficiently generate functional dopamine neurons and can treat a rat model of Parkinson disease. The Journal of clinical investigation 121, 2326-2335]. The human NSCs were expanded in ITS media supplemented with bFGF (20 ng/ml) in the presence or absence of VC for two NSC passages. Differentiation of the passaged human NSCs was induced by withdrawal of bFGF and VC in ITS supplemented with brain-derived neurotrophic factor (20 ng/ml; R&D Systems), glial cell line derived neurotrophic factor (20 ng/ml; R&D Systems), and dibutyryl cAMP (0.5 mmol/1; Sigma). Cultures were maintained at 37° C. in humidified 5% CO2 incubators.
Cultured cells and cryosectioned brain slices were fixed with 4% paraformaldehyde (PFA), and blocked for 40 minutes in blocking solution (Blocking solution: 1% BSA+0.3% Triton X-100). For 5hmC and 5mC staining, the fixed cells were incubated with 2 N HCl for 20 minutes before the blocking reaction. The samples were incubated overnight at 4° C. in the blocking solution containing the primary antibodies listed in Supplemental Table 1. Secondary antibodies tagged with Alexa 488 (1:200, Invitrogen, Carlsbad, Calif.) and Cy3 (1:200, Jackson Immunoresearch Laboratories, West Grove, Pa.) were applied. Stained samples were mounted in Vectashield medium containing 40,6-diamidino-2-phenylindole (DAPI; Vector Laboratories, West Grove, Pa.) and analysed under an epifluorescence (Leica, Wetzlar, Germany) or confocal microscope (Leica TSP SP5).
Immunostained cells were counted in 10-20 random areas of each culture coverslip using an eyepiece grid at a magnification of 200×. Data are expressed as the mean±SEM of three to eight independent cultures. […]

The test system of test [2] is VM-NSCs. Briefly: Cell growth curves and population doubling level during NSC expansion. Type of test: cell-based, rat. The conditions noted are these: up to P1. As for the experimental part: (§2) The cell growth profile during NSC expansion with several cell passages was generated by counting the number of viable cells at the end of each passage. Cell expansion of each NSC passage was further estimated by the population doubling level (PDL, the level at which the number of cells is doubled), which was determined by log(N/NO)/log 2 (where N is the number of cells at the end of each passage; NO is the number of cells plated initially (1×10^5 cells/cm^2)). DA neuronal cell survival in the absence or presence of toxic insults (500-1000 uM of H2O2 or 6-OHDA) was determined by counting viable TH^+ cells after staining. General cell death and DNA damage were estimated by ethidium heterodimer 1 (EthD1) (Molecular Probes) and γH2AX staining, respectively.

The test system of test [3] is human NSCs derived from hESCs (H9). The test can be described thus: VC treatment in human NSC cultures derived from hESCs (H9). In kind it is cell-based. The procedure: as §1, with “H., Shim, J. W., Jo, A. Y., Kim, B. W., Lee, H., et al. (2011). Protein-based human iPS cells efficiently generate functional dopamine neurons and can treat a rat model of Parkinson disease. The Journal of clinical investigation 121, 2326-2335].” left out
as §2
To estimate morphological maturation, total fiber lengths emanating from TH+DA neuronal cells were measured. The pre-synaptic activity of DA neurons was determined by measuring the levels of DA neurotransmitter released in the differentiated VM-NSC cultures. Media incubated for 2 days (differentiation day 13-15) were collected and used in the DA level determinations using an ELISA kit (BA E-5300, LDN). […] The evoked DA release was calculated by subtracting the DA release without KCl from the DA level with KCl.

Structures are written as SMILES.

In the case of `O=C1O[C@H]([C@@H](O)CO)C(O)=C1O` [VC, L-ascorbic acid], in the test on VM-NSCs [1] (P1, VC during expansion, differentiated 12 days without VC), the “expression of other DA phenotypes (VMAT2, AADC and DAT) in TH+ cells” value is listed as “Virtually all”. Besides, the “TH+ cell yields (% of total DAPI+ cells)” value in the test with VM-NSCs [1] (VC 200 uM during expansion, P1 cultures, differentiated without VC, D6) came out at 10.85±1.2%. For the same compound, the “TH+ DA neuronal yields” value with VM-NSCs [1] (VC during expansion, P2 cultures, differentiated without VC) was 1.22±0.1%; in test [3] (VC-treated human NSCs, D6) it was “significantly enhanced”. The “prevention of DA neuron loss in passaged cultures” value in the test on VM-NSCs [1] (antioxidant during expansion for 8 days (up to P1), differentiation without antioxidants) is listed as “prevention of DA neuron loss”. In addition, the “VM-NSC survival and proliferation” value in the test with VM-NSCs [2] is on record as “none of the anti-oxidant treatments tested, including VC, significantly altered”. Moreover, in test [3] (compared to untreated control cultures, D15), the “neurite branching of TH+ cells” value is recorded as “more extensive neurite branching”. In addition, the differentiating/differentiated cell survival entry in test [3] (hESC-NSC cultures, VC during proliferation, D6) is on record as “greatly promoted”. In test [3] (qRT-PCR), the “TH mRNA expression” value is listed as “increase”.
